What all share (assay type): cell-based
The subject of one test is SK-OV-3. As to the kind of experiment: Cytotoxicity, adherent cells, 14C-thymidine incorporation (cell proliferation). As to conditions: SK-OV-3 human ovarian cancer, 96 h treatment, read-out: SKOV3 IC50. How it is done:
SK-OV-3 is a human ovarian cancer. […] This cell has an intrinsic mechanism of resistance to cisplatin which is linked to high levels of glutathione (Br J Cancer 1998; 78:175-180). This cell line is commonly used to explore the effects of high levels of glutathione on the resistance to platinum compounds (Br J Cancer 1996, 74: 380-386).
(§1) Cell proliferation is evaluated by the incorporation of ^14C-thymidine into the DNA of the cells. A549, CH1, CH1/DDP and H460 are cultured in Dulbecco's modified Eagle's medium (DMEM), SK-OV-3 in Mc-Coy medium, A2780 and A2780/DDP in RPMI1640 medium. All the media contain 10% foetal calf serum, 2 mM L-glutamine, 100 units/ml of penicillin and […] of streptomycin. The incubation is performed at 37° C. in a 95% air/5% CO2 atmosphere.
(§2) The cells, at the exponential growth phase, are introduced into the wells of a Cytostar 96-well plate, containing a scintillation fluid (Cytostar-T scintillating microplate, GE Healthcare Bio-Sciences AB, Uppsala, Sweden), at the density of 5×10^3 to 10^4 cells per well, in an amount of 180 μl per well. After incubating for 4 hours, the test compounds are added. The compounds are prepared beforehand as a stock solution at the concentration of 10 mM in DMSO. A serial dilution is performed before the compounds are brought into contact with the cells in a volume of 10 μl. After incubating for 72 hours at 37° C. in an atmosphere of 95% air/5% CO2, 0.1 μCi/well of ^14C-thymidine is added. 24 h later (total 96 h of treatment), the incorporation of ^14C-thymidine is recorded on a suitable scintillation counter (MicroBeta radioactivity counting, Perkin-Elmer Life Sciences, Boston, Mass., USA). The mean values obtained in the experimental groups are divided by the mean values obtained in the control groups in order to obtain percentages relative to the controls.
(§3) The IC50 values are evaluated from curves presenting the percentage viability as a function of the concentration of the test compound, using the Biostat speed software. The IC50 is defined as the concentration of the compound which inhibits 50% of the cell proliferation or 50% of the cell viability.
On the technique in general: Incorporation of labelled thymidine or its analogues reports DNA synthesis.

Another test concerns H460. The test is described as above. Particulars: NCI-H460 human non-small cell lung cancer, 96 h treatment. The method, then:
NCI-H460 is a human non-small cell lung cancer which has a mutation in the K-ras gene. This cell is sensitive to platinum compounds. In this cell line, cisplatin forms more adducts than oxaliplatin at the same concentration and yet the percentage repair is higher for oxaliplatin (DNA Repair 2006, 5: 219-225).
as §1, §2, §3

A further test deals with A2780. The description is as above. As to conditions: A2780 human ovarian cancer, 96 h treatment.
Excerpt: (§4) A2780 and A2780/DDP are human ovarian cancer lines. […] The resistance of the A2780/DDP line is of the acquired type and involves various mechanisms: —reduction in the capacity for internalization of cisplatin, —replicative bypass (this is defined as the possibility for a replicative complex to synthesize DNA beyond the site of damage) (Cancer Res 1994; 54:3500-3505), —active detoxification by glutathione (Exp Oncol 2005; 27:191-195), —low activity of Caspase-3, enzymes involved in the process of programmed cell death (J Cancer Res Clin Oncol 2004; 130:423-428) and finally high nuclear efflux of platinum compounds (Oncol Rep 2004; 12:1365-1370).
as §1, §2, §3

Another test relates to A2780/DDP. Described as above. Particulars: A2780/DDP cisplatin-resistant human ovarian cancer, 96 h treatment.
Excerpt: as §4, §1, §2, §3

A further test deals with CCRF-CEM cells. Kind of test: Cytotoxicity, non-adherent CCRF-CEM cells, CellTiter-Glo luminescent cell viability. Particulars: CCRF-CEM human T leukaemia, 96 h incubation. The method, then: CCRF-CEM is a human T leukaemia (Cancer 1965, 18: 522-529). Oxaliplatin induces bifunctional lesions such as inter- and intra-DNA strand adducts on these CCRF-CEM cells (Mol Pharmacol 2000, 58: 920-927). […] This deficiency makes these cells particularly […] to alkylating agents and to platinum compounds.
For the non-adherent CCRF-CEM cells, the cell viability is measured by the luminescence test CellTiter-Glo® Luminescent Cell Viability Assay (Promega, Madison, Wis., USA). When it is added to the cells, the reagent produces a luminescence in the presence of the ATP of the living cells. The results are evaluated on a suitable reader (Envision, Perkin-Elmer Life Sciences, Boston, Mass., USA).
The CCRF-CEM cells are cultured in RPMI1640 medium containing 10% foetal calf serum, 2 mM L-glutamine, 100 units/ml of penicillin and […] of streptomycin, at 37° C. in a 95% air/5% CO2 atmosphere. The cells, at the exponential growth phase, are introduced into the wells of a 96-well plate at the density of 5×10^3 cells per well in an opaque plate (Greiner), in a volume of 150 μl. After incubating for 4 h at 37° C. in a 95% air/5% CO2 atmosphere, the compounds (concentrated 20-fold) are added in a volume of 8 μl. The compounds are prepared beforehand as a stock solution at the concentration of 10 mM in DMSO. A serial dilution is performed before the compounds are brought into contact with the cells. After incubating for 96 h at 37° C., 100 μl of agents (CellTiter-Glo) are added. After lysing the cells, the release of ATP is evaluated on the Envision reader.
as §3
For orientation: Cellular ATP, detected with luciferase, serves as a proxy for viable cell number.

The subject of a further test is CH1. Kind of test: Cytotoxicity, adherent cells, 14C-thymidine incorporation (cell proliferation). As to conditions: CH1 human ovarian cancer, 96 h treatment.
Excerpt: (§5) CH1 and CH1 CisR are human ovarian cancers which are sensitive and resistant to cisplatin, respectively. The relative sensitivity of the CH1 cell may be at least partially attributed to a deficiency of a gene involved in repair processes and which is capable of removing the adducts (Chemico-Biological Interactions, 1999; 123:11-29). The CH1cisR cell is resistant to cisplatin through a poorly known mechanism of DNA repair, or increase in the tolerance of the cell to the damage caused by cisplatin to the DNA of this cell (Mol Pharmacol 2003; 63:933-944, Cancer Res 52: 3857-3864).
as §1, §2, §3

The test system of a further test is CH1/DDP. Described as above. As to conditions: CH1/DDP cisplatin-resistant human ovarian cancer, 96 h treatment.
Excerpt: as §5, §1, §2, §3

pIC50: −log10 of the molar value. A value given as a limit tells only on which side of the number the result lay.

The record followed here is US8481522B2, “Platinum-N-heterocyclic carbene derivatives, preparation thereof and therapeutic use thereof” (Sanofi, priority 2008, dated 2013).

Broadly, the pIC50 is the IC50 on a negative log10 scale, so that one unit is a factor of ten. `COc1ccc(Cn2ccn(C)[c]2=[Pt]([I])([I])[NH]C2CCCCC2)cc1` [Example 10, trans-diiodo(N-cyclohexylamine)[1-methyl-3-(4-methoxybenzyl)-imidazol-2-ylidene]platinum(II)]: the pIC50 with SK-OV-3 is 5.28; in the test on H460 it was 5.42; in the test with A2780 it was 5.80; in the test with A2780/DDP, 5.64; with CCRF-CEM cells, 5.80.

As to `Cn1[c](=[Pt-]([I])([I])[NH2+]C2CC3CCC2C3)n(C)c2ccccc21` (racemic) [Example 7, trans-diiodo(N-exo(+/−)bicyclo[2.2.1]heptylamine)(1,3-dimethyl-benzimidazol-2-ylidene)platinum(II)], the pIC50 is 5.60 in the test with CH1; 5.62 with CH1/DDP; 5.15 in the test on SK-OV-3; 5.72 in the test on H460; 6.40 in the test with A2780; 5.74 in the test on A2780/DDP. In addition, the pIC50 with CCRF-CEM cells was 5.89.

As for `N.N.[Cl][Pt][Cl]` [Cisplatin, cisplatin, reference compound], the pIC50 is 5.10 in the test on CH1; less than 5.00 in the test on CH1/DDP; 5.21 in the test on SK-OV-3; 5.62 in the test with H460; 5.05 in the test with A2780; less than 5.00 in the test with A2780/DDP. The pIC50 with CCRF-CEM cells is 5.52.

Consider `O=C1[O][Pt]2([NH][C@@H]3CCCC[C@H]3[NH]2)[O]C1=O` [Oxaliplatin, oxaliplatin, reference compound], for which the pIC50 in the test with CH1 is 5.38; in the test with CH1/DDP, 5.21; in the test on SK-OV-3 it was less than 5.00; in the test with H460, 5.40; in the test on A2780, 5.41; in the test on A2780/DDP, 4.76. The pIC50 in the test with CCRF-CEM cells is 6.05.

In the case of `[I][Pt-2]([I])([NH2+]C1CCCCC1)[c]1n(Cc2ccccc2)cc[n+]1Cc1ccccc1` [Example 12, trans-diiodo(N-cyclohexylamine)[1,3-dibenzylimidazol-2-ylidene]-platinum(II)], the negative-log IC50 (pIC50) with SK-OV-3 is 5.55; with H460, 5.47; in the test with A2780, 6.15; in the test on A2780/DDP, 5.92; in the test on CCRF-CEM cells, 5.89.

As to `Cn1ccn(Cc2ccc(C(F)(F)F)cc2)[c]1=[Pt-]([I])([I])[NH2+]C1CCCCC1` [Example 11, trans-diiodo(N-cyclohexylamine)[1-methyl-3-(4-trifluoromethylbenzyl)imidazol-2-ylidene]platinum(II)], the negative-log IC50 (pIC50) in the test on SK-OV-3 was 5.59; with H460, 5.82; in the test with A2780 it was 6.10; in the test with A2780/DDP it was 5.96; in the test on CCRF-CEM cells, 6.00.

On to `Cn1ccn(CC2CCCCC2)[c]1=[Pt-]([I])([I])[NH2+]C1CCCCC1` [Example 3, trans-diiodo(N-cyclohexylamine)(1-methyl-3-cyclohexylmethylimidazol-2-ylidene)platinum(II)], for which the pIC50 in the test on CH1 is 5.64; in the test on CH1/DDP it was 5.70; in the test with SK-OV-3 it was 5.28; in the test with H460 it was 5.42; in the test with A2780 it was 6.00; with A2780/DDP, 5.92. This compound gave a pIC50 with CCRF-CEM cells of 5.70.

`Cn1[c](=[Pt-]([I])([I])[NH2+]C2CC3CCC2C3)n(C)c2ccccc21` (single isomer, unassigned) [Example 16, trans-diiodo(N-exo(+)bicyclo[2.2.1]heptylamine)(1,3-di-methylbenzimidazol-2-ylidene)platinum(II)]: the pIC50 with SK-OV-3 is 5.39; in the test with H460 it was 5.39; in the test on A2780, 5.96; with A2780/DDP, 5.57; in the test on CCRF-CEM cells, 5.85.

On to `Cn1ccn(Cc2ccc(C(F)(F)F)cc2)[c]1=[Pt-]([NH2+]C1CCCCC1)([O][N+](=O)[O-])[O][N+](=O)[O-]` [Example 34, trans-dinitrato(N-cyclohexylamine)[1-methyl-3-(4-trifluoromethyl-benzyl)imidazol-2-ylidene]platinum(II)], for which the pIC50 is 5.51 in the test with H460 and 5.85 with CCRF-CEM cells.

In the case of `Cn1cnn(C)[c]1=[Pt]([I])([I])[NH]C1CCCCC1` [Example 2, trans-diiodo(N-cyclohexylamine)(1,4-dimethyl-1,2,4-triazol-5-ylidene)platinum(II)], the pIC50 is 5.60 in the test with H460 and 5.82 with CCRF-CEM cells.

Take `Cn1c(=O)c2c(n(C)c1=O)n(C)[c](=[Pt]([I])([I])[NH]C1CC3CCC1C3)n2C` (racemic) [Example 25, trans-diiodo(N-exo(+/−)bicyclo[2.2.1]heptylamine) (1,3,7,9-tetramethylxanthin-8-ylidene)platinum(II)]: the pIC50 with H460 was 5.82; in the test with CCRF-CEM cells, 6.00.

Consider `COc1cccc(Cn2cc[n+](C)[c]2[Pt-2]([I])([I])[NH2+]C2CCCCC2)c1` [Example 32, trans-diiodo(N-cyclohexylamine)[3-(3-methoxybenzyl)-1-methyl-imidazol-2-ylidene]platinum(II)], for which the pIC50 with H460 is 5.85; in the test with CCRF-CEM cells, 5.92.

Turning to “trans-diiodo(N-cyclohexylamine)[3-benzyl-1-methyl-4-phenylimidazol-2-ylidene]platinum(II) [Example 21]”, the pIC50 is 5.72 in the test on H460 and 6.05 in the test with CCRF-CEM cells.

Turning to `Cn1[c](=[Pt-]([I])([I])[NH2+]C2CC3CCC2C3)n(C)c2ccccc21` (single isomer, unassigned) [Example 17, trans-diiodo(N-exo(−)bicyclo[2.2.1]heptylamine)(1,3-dimethylbenzimidazol-2-ylidene)platinum(II)], the negative-log IC50 (pIC50) is 5.30 in the test on SK-OV-3; 5.96 with H460; 5.96 in the test on A2780; 5.66 with A2780/DDP; 5.74 with CCRF-CEM cells.

`Cn1ccn(C)[c]1=[Pt-]([I])([I])[NH2+]Cc1ccc(C(F)(F)F)cc1` [Example 14, trans-diiodo[N-4-(trifluoromethyl)benzylamine](1,3-dimethylimidazol-2-ylidene)platinum(II)]: the results for the pIC50 with H460 and in the test with CCRF-CEM cells were 5.59 and 5.77, respectively.
